Test results as given in US8895599B2, “Lipoprotein lipase-activating compositions comprising benzene derivates” (Otsuka Pharmaceutical Factory, Inc., priority 2008, dated 2014).

Columns and labels:
Assay type in all cases: in vivo
[1] = Therapeutical effect on olive oil-induced triglyceride hyperlipidemia models; details: once a day for one week, SD rats, 2 h after olive oil
[2] = Anti-obesity test using Zucker fatty rats; details: 100 mg/kg oral, once a day over 4 weeks, relative to control group
Source text: Anti-Obesity Test Using Zucker Fatty Rats
Zucker fatty rats are obese rats discovered by Zucker et al., in 1961 as mutants among 13 M rats, which are a hybrid between 13C and M rats. These rats (fa/fa) start to appear distinctly obese from normal broods around the age of 3 weeks. As they age, the weight difference between the fatty rats and normal rats increases. Zucker fatty rats are currently kept by a variety of organizations as simple obesity models, and are readily obtainable.
This test was performed using this rat model to evaluate the anti-obesity action of the compounds of the invention. The preparation method of test samples and the test procedures are described below:
The test samples were prepared in the same manner as in Test Example 2.
Zucker fatty rats and lean rats (both from Charles River Japan) were purchased at the age of 5 weeks. They were divided into groups (10 rats per group) according to body weight when they reached 6 weeks old. After acclimatization, the administration of test samples was initiated when the rats reached 8 weeks old. Test samples were orally administered using an oral gavage so that the compounds of the invention contained in the test samples were given in an amount of 100 mg/kg body weight (test sample dosage: 5 ml/kg body weight). The test samples were administered once a day over 4 weeks at a specific time of day.
As a control, a group of rats were administered with the same amount of 5% aqueous gum arabic solution (5 ml/kg body weight) instead of the test samples.
The rats of all groups were weighed on the last day of administration. The average body weight of the rats of each test group was compared with the average body weight (standard weight) of the rats of the control group to obtain the weight variations (differences). The weight differences were expressed as percentages in relation to the standard weight. The values thus calculated are referred to as “weight change %”. When a weight difference is negative relative to the standard weight, weight change % is shown with “−” (minus).
During the test period, the rats of the respective groups had free access to rat feed (“CRF-1”, manufactured by Oriental Yeast, Co., Ltd.) and water (tap water).

LPL = experiment: Test for LPL activity-increasing effect in normal rats (skeletal muscle LPL activity); details: every day for 1 week, SD rats, soleus muscle, 4 h after administration
Procedure: Test for LPL Activity-Increasing Effect in Normal Rats
6-week-old SD rats (purchased from Charles River Japan) were used as subjects. The rats were divided into groups according to body weight at the age of 5 weeks. The rats in each test group were orally administered with a 5% gum arabic suspension in an amount of 5 ml/kg of body weight, the suspension containing the test compound of the invention in such an amount that the dose of the compound of the invention became 30 mg/kg of body weight in one group and 100 mg/kg of body weight in another group. The rats in a control group were orally administered with a 5% gum arabic suspension (not containing the test compound of the invention) in an amount of 5 ml/kg of body weight. Each sample suspension was orally administered every day at a specific time of day for 1 week starting when the rats reached the age of 6 weeks.
Four hours after the administration of the sample suspension, skeletal muscle tissues of the rats were collected, then freeze-clamped and stored under liquid nitrogen. LPL activity in the skeletal muscle tissues was measured by the following method.
The soleus muscle was homogenized in a chilled solution of 0.05 mol/L NH4OH—NH4Cl buffer (pH 8.5) containing 0.5 U/mL heparin at 1 mL/100 mg of tissue wet weight. After standing on ice for 60 min with vigorous mixing at intervals of 15 min, the homogenate was centrifuged at 3000 rpm and 4° C. for 10 min and the supernatant was separated.
The substrate solution was prepared by mixing 2 μCi of glycerol tri[1-^14C]oleate, 0.133 g of unlabeled triolein, 0.9 mL of 1% Triton X-100, and 0.9 mL of 4% bovine serum albumin. in 0.2 mol/L Tris-HCl buffer (pH 8.6) and 10.2 mL of 0.2 mol/L Tris-HCl buffer (pH 8.6). The mixture was emulsified by sonication on ice for 3 min.
In a glass test tube, 0.1 mL of the tissue extract, 0.05 mL of heat-inactivated rat serum and 0.15 mL of 4% bovine serum albumin in 0.2 mol/L Tris-HCl buffer (pH 7.4) were mixed. Enzyme reaction was started by adding 0.2 mL of the substrate solution and was carried out for 30 min. at 37° C.
The reaction was stopped by addition of 2 mL of 1.5 mol/L H2SO4/2-propanol (1:40, v/v), and 1 mL of distilled water and 3 mL of hexane were added into the test tube. After vigorously shaking for 10 min. at room temperature, the test tube was centrifuged for 10 min. at 3000 rpm.
The upper layer (3.5 mL) was collected in a new test tube and mixed with 1 mL of 0.1 mol/L KOH.
The test tube was vigorously shaken for 10 min. at room temperature and then centrifuged for 10 min. at 3000 rpm.
After removing the upper layer, 1 mL of the lower layer (water phase) was transferred into a vial for counting, neutralized with 50 μL of 1.3 mol/L HCl and mixed with 4 mL of scintillator. The radioactivity was measured using a liquid scintillation counter.
The LPL activity increase (%) was calculated from the measured values of LPL activity in the control group and test groups according to the following formula: LPL activity increase (%)=(Test group average value)/(Control group average value)×100−100

SMILES: COc1cc(-c2cn3ccccc3n2)ccc1OCc1ccc(Cl)cc1 [Example 10]
- Decrease in plasma triglyceride level (%) ([1]; 10 mg/kg oral): 48%
- Decrease in plasma triglyceride level (%) ([1]; 30 mg/kg oral): 67%
- Decrease in plasma triglyceride level (%) ([1]; 100 mg/kg oral): 74%
- Weight Change (%) [2]: −15%
- Increase of skeletal muscle LPL activity compared to control (%) (LPL; 30 mg/kg oral): 22%
- Increase of skeletal muscle LPL activity compared to control (%) (LPL; 100 mg/kg oral): 55%
